System: murine B16 melanoma
Experiment: Antitumor effect in murine B16 melanoma model, tumor size and tumor weight (Example 2)
Type: in vivo, C57BL/6 mice
Settings: Day 12
Method: As per aseptic tissue culture procedures, one vial of B16 melanoma cells (supplied by Cell Culture Center of CAMS) was thawed and centrifuged at 1000 rpm, 20-25° C. for 5 minutes. The cell pellets were suspended in 0.1-0.5 mL normal saline (NS) and subcutaneously injected into the right axilla of each mouse (approximately 1×10^6 cells/mouse). When the tumor diameter was 1 cm approximately (measured by vernier caliper), the animals were euthanized with CO2 asphyxiation and the tumor was excised. Tumor cells were suspended in normal saline as previously described and the cell adaptation cycle was repeated once.
On Day 0, 1×10^6 B16 cells in a volume of 0.1 mL normal saline were subcutaneously injected into the right axillary area of the mouse. The day of tumor inoculation was defined as Day 0.
Dosing was initiated on Day 1.
Observations were recorded daily for mortality and moribundity. […] The tumors were excised, separated, and weighed.
Tumor volume was calculated using the following formula: Tumor Volume=Length×Width×Width/2 Tumor volume inhibition rate (IR) was calculated according to the formula: IR(TV)=(TVvehicle−TVdrug treated)/TVvehicle×100% TV is the tumor volume on the day of measurement.
The antitumor effect of the test article was also evaluated by tumor weight. The tumor weight of each mouse was recorded after euthanasia, and the inhibition rate of tumor weight was calculated according to the formula: IR(TW)=(Tumor weightvehicle−Tumor weightdrug treated)/Tumor weightvehicle×100%

**Q.** N[C@H](CCC(=O)N[C@@H](Cc1c[nH]c2ccccc12)C(=O)O)C(=O)O [SCV-07, γ-D-glutamyl-L-tryptophan] was tested. Which “Tumor measurements L” value (mouse F2, SCV-07 5.0 mg/kg sc) did it give?
**A.** The value was 1.0 cm.

**Q.** What about the “Tumor measurements W” value (mouse F2, SCV-07 5.0 mg/kg sc) of the same molecule?
**A.** Its value is 1.0 cm.

**Q.** What about the Tumor volumes (mouse F2, SCV-07 5.0 mg/kg sc) of the same molecule?
**A.** The Tumor volumes was 0.50 cm^3.

**Q.** And the “Tumor measurements L” value (mouse F3, SCV-07 0.01 mg/kg sc)?
**A.** The value was 0.1 cm.

**Q.** What about the “Tumor measurements W” value (mouse F3, SCV-07 0.01 mg/kg sc) of the same molecule?
**A.** The value was 0.1 cm.

**Q.** What about the Tumor volumes (mouse F3, SCV-07 0.01 mg/kg sc) of the same molecule?
**A.** Its Tumor volumes is 5E−04 cm^3.

**Q.** What about the “Tumor measurements L” value (mouse F3, SCV-07 0.1 mg/kg sc) of the same molecule?
**A.** Its value is 1.1 cm.

**Q.** And the “Tumor measurements W” value (mouse F3, SCV-07 0.1 mg/kg sc)?
**A.** The value was 1.0 cm.

**Q.** What about the Tumor volumes (mouse F3, SCV-07 0.1 mg/kg sc) of the same molecule?
**A.** The Tumor volumes was 0.55 cm^3.

**Q.** What about the “Tumor measurements L” value (mouse F3, SCV-07 1.0 mg/kg sc) of the same molecule?
**A.** Its value is 1.0 cm.

**Q.** What about the “Tumor measurements W” value (mouse F3, SCV-07 1.0 mg/kg sc) of the same molecule?
**A.** The value was 1.0 cm.

**Q.** What about the Tumor volumes (mouse F3, SCV-07 1.0 mg/kg sc) of the same molecule?
**A.** The Tumor volumes was 0.50 cm^3.

**Q.** And the “Tumor measurements L” value (mouse F3, SCV-07 5.0 mg/kg sc)?
**A.** Its value is 0.7 cm.

**Q.** What about the “Tumor measurements W” value (mouse F3, SCV-07 5.0 mg/kg sc) of the same molecule?
**A.** Its value is 0.7 cm.

**Q.** What about the Tumor volumes (mouse F3, SCV-07 5.0 mg/kg sc) of the same molecule?
**A.** The Tumor volumes was 0.17 cm^3.

**Q.** What about the “Tumor measurements L” value (mouse F4, SCV-07 0.01 mg/kg sc) of the same molecule?
**A.** Its value is 1.0 cm.

**Q.** What about the “Tumor measurements W” value (mouse F4, SCV-07 0.01 mg/kg sc) of the same molecule?
**A.** Its value is 1.0 cm.

**Q.** And the Tumor volumes (mouse F4, SCV-07 0.01 mg/kg sc)?
**A.** The Tumor volumes was 0.50 cm^3.

**Q.** What about the “Tumor measurements L” value (mouse F4, SCV-07 0.1 mg/kg sc) of the same molecule?
**A.** The value was 1.1 cm.

**Q.** What about the “Tumor measurements W” value (mouse F4, SCV-07 0.1 mg/kg sc) of the same molecule?
**A.** Its value is 1.1 cm.

**Q.** And the Tumor volumes (mouse F4, SCV-07 0.1 mg/kg sc)?
**A.** Its Tumor volumes is 0.67 cm^3.

**Q.** And the “Tumor measurements L” value (mouse F4, SCV-07 1.0 mg/kg sc)?
**A.** The value was 0.1 cm.

**Q.** And the “Tumor measurements W” value (mouse F4, SCV-07 1.0 mg/kg sc)?
**A.** Its value is 0.1 cm.

**Q.** And the Tumor volumes (mouse F4, SCV-07 1.0 mg/kg sc)?
**A.** Its Tumor volumes is 0.00 cm^3.

**Q.** What about the “Tumor measurements L” value (mouse F4, SCV-07 5.0 mg/kg sc) of the same molecule?
**A.** The value was 0.8 cm.

**Q.** And the “Tumor measurements W” value (mouse F4, SCV-07 5.0 mg/kg sc)?
**A.** The value was 0.8 cm.

**Q.** And the Tumor volumes (mouse F4, SCV-07 5.0 mg/kg sc)?
**A.** Its Tumor volumes is 0.26 cm^3.

**Q.** What about the “Tumor measurements L” value (mouse F5, SCV-07 0.01 mg/kg sc) of the same molecule?
**A.** The value was 1.0 cm.

**Q.** And the “Tumor measurements W” value (mouse F5, SCV-07 0.01 mg/kg sc)?
**A.** Its value is 0.9 cm.

**Q.** And the Tumor volumes (mouse F5, SCV-07 0.01 mg/kg sc)?
**A.** The Tumor volumes was 0.41 cm^3.

**Q.** And the “Tumor measurements L” value (mouse F5, SCV-07 0.1 mg/kg sc)?
**A.** The value was 0.3 cm.

**Q.** What about the “Tumor measurements W” value (mouse F5, SCV-07 0.1 mg/kg sc) of the same molecule?
**A.** The value was 0.3 cm.

**Q.** And the Tumor volumes (mouse F5, SCV-07 0.1 mg/kg sc)?
**A.** Its Tumor volumes is 0.01 cm^3.

**Q.** What about the “Tumor measurements L” value (mouse F5, SCV-07 1.0 mg/kg sc) of the same molecule?
**A.** Its value is 1.0 cm.

**Q.** What about the “Tumor measurements W” value (mouse F5, SCV-07 1.0 mg/kg sc) of the same molecule?
**A.** The value was 1.0 cm.

**Q.** And the Tumor volumes (mouse F5, SCV-07 1.0 mg/kg sc)?
**A.** The Tumor volumes was 0.50 cm^3.

**Q.** And the “Tumor measurements L” value (mouse F5, SCV-07 5.0 mg/kg sc)?
**A.** The value was 1.0 cm.

**Q.** What about the “Tumor measurements W” value (mouse F5, SCV-07 5.0 mg/kg sc) of the same molecule?
**A.** The value was 1.0 cm.

**Q.** What about the Tumor volumes (mouse F5, SCV-07 5.0 mg/kg sc) of the same molecule?
**A.** The Tumor volumes was 0.50 cm^3.

**Q.** And the “Tumor measurements L” value (mouse M1, SCV-07 0.01 mg/kg sc)?
**A.** Its value is 1.1 cm.

**Q.** What about the “Tumor measurements W” value (mouse M1, SCV-07 0.01 mg/kg sc) of the same molecule?
**A.** Its value is 1.1 cm.

**Q.** And the Tumor volumes (mouse M1, SCV-07 0.01 mg/kg sc)?
**A.** The Tumor volumes was 0.67 cm^3.

**Q.** What about the “Tumor measurements L” value (mouse M1, SCV-07 0.1 mg/kg sc) of the same molecule?
**A.** Its value is 1.1 cm.

**Q.** And the “Tumor measurements W” value (mouse M1, SCV-07 0.1 mg/kg sc)?
**A.** Its value is 1.1 cm.

**Q.** And the Tumor volumes (mouse M1, SCV-07 0.1 mg/kg sc)?
**A.** Its Tumor volumes is 0.67 cm^3.

**Q.** What about the “Tumor measurements L” value (mouse M1, SCV-07 1.0 mg/kg sc) of the same molecule?
**A.** The value was 0.8 cm.

**Q.** What about the “Tumor measurements W” value (mouse M1, SCV-07 1.0 mg/kg sc) of the same molecule?
**A.** Its value is 0.7 cm.

**Q.** And the Tumor volumes (mouse M1, SCV-07 1.0 mg/kg sc)?
**A.** Its Tumor volumes is 0.20 cm^3.

**Q.** And the “Tumor measurements L” value (mouse M1, SCV-07 5.0 mg/kg sc)?
**A.** The value was 0.7 cm.

**Q.** And the “Tumor measurements W” value (mouse M1, SCV-07 5.0 mg/kg sc)?
**A.** Its value is 0.7 cm.

**Q.** And the Tumor volumes (mouse M1, SCV-07 5.0 mg/kg sc)?
**A.** Its Tumor volumes is 0.17 cm^3.

**Q.** What about the “Tumor measurements L” value (mouse M2, SCV-07 0.01 mg/kg sc) of the same molecule?
**A.** Its value is 0.9 cm.

**Q.** And the “Tumor measurements W” value (mouse M2, SCV-07 0.01 mg/kg sc)?
**A.** The value was 0.9 cm.

**Q.** And the Tumor volumes (mouse M2, SCV-07 0.01 mg/kg sc)?
**A.** Its Tumor volumes is 0.36 cm^3.

**Q.** And the “Tumor measurements L” value (mouse M2, SCV-07 0.1 mg/kg sc)?
**A.** The value was 0.9 cm.

**Q.** What about the “Tumor measurements W” value (mouse M2, SCV-07 0.1 mg/kg sc) of the same molecule?
**A.** Its value is 0.9 cm.

**Q.** And the Tumor volumes (mouse M2, SCV-07 0.1 mg/kg sc)?
**A.** Its Tumor volumes is 0.36 cm^3.

**Q.** And the “Tumor measurements L” value (mouse M2, SCV-07 1.0 mg/kg sc)?
**A.** Its value is 1.0 cm.

**Q.** What about the “Tumor measurements W” value (mouse M2, SCV-07 1.0 mg/kg sc) of the same molecule?
**A.** Its value is 1.0 cm.

**Q.** And the Tumor volumes (mouse M2, SCV-07 1.0 mg/kg sc)?
**A.** Its Tumor volumes is 0.50 cm^3.

**Q.** What about the “Tumor measurements L” value (mouse M2, SCV-07 5.0 mg/kg sc) of the same molecule?
**A.** The value was 0.9 cm.

**Q.** What about the “Tumor measurements W” value (mouse M2, SCV-07 5.0 mg/kg sc) of the same molecule?
**A.** The value was 0.9 cm.

**Q.** What about the Tumor volumes (mouse M2, SCV-07 5.0 mg/kg sc) of the same molecule?
**A.** Its Tumor volumes is 0.36 cm^3.

**Q.** And the “Tumor measurements L” value (mouse M3, SCV-07 0.01 mg/kg sc)?
**A.** The value was 1.1 cm.

**Q.** What about the “Tumor measurements W” value (mouse M3, SCV-07 0.01 mg/kg sc) of the same molecule?
**A.** Its value is 0.9 cm.

**Q.** And the Tumor volumes (mouse M3, SCV-07 0.01 mg/kg sc)?
**A.** Its Tumor volumes is 0.45 cm^3.

**Q.** And the “Tumor measurements L” value (mouse M3, SCV-07 0.1 mg/kg sc)?
**A.** Its value is 1.1 cm.

**Q.** What about the “Tumor measurements W” value (mouse M3, SCV-07 0.1 mg/kg sc) of the same molecule?
**A.** Its value is 1.1 cm.
